Test results from patent US10906863B1, “Hydroxytyrosol 4-methoxycinnamic acid ester with antibacterial activity and a method of preparing the same” (SHAANXI UNIVERSITY OF SCIENCE AND TECHNOLOGY, priority 2020, dated 2021).
Values after ≈ are worked out from the molar mass of the structure shown.

Columns and labels:
Assay type in all cases: cell-based
[1] = test system: carbapenem-resistant Acinetobacter baumannii CR-AB 18-560; experiment: MIC by microbroth dilution, CR-AB 18-560; settings: strain CR-AB 18-560, 37° C., 20-22 hours
Source text: (§1) The minimal inhibitory concentration (MIC) of the compound as determined by a microbroth dilution method with gentamicin, cefazolin sodium and ceftriaxone sodium as positive control.
(§2) The experimental strains included methicillin-resistant Gram-positive bacteria: methicillin-resistant Staphylococcus aureus MRSA 18-222, 18-575; multiple drug-resistant […] bacteria: vancomycin-resistant enterococci VRE 18-80,18-94, multidrug-resistant Pseudomonas aeruginosa MDR-PA 18-1774,18-202, carbapenem-resistant Acinetobacter baumannii CR-AB 18-183,18-560. All the experimental strains were donated by Huashan Hospital affiliated to Fudan University (Institute of antibiotics, Fudan University) and used after routine identification.
(§3) Preparation of MHB medium: 20.0 g MHB medium was added to 1 L distilled water, boiled until completely dissolved, packed in conical bottles and sterilized at 121° C. for 15 min.
(§4) The experimental strain was cultured to the logarithmic growth phase: under aseptic condition, the experimental strain was inoculated into 100 mL MHB medium and incubated in a constant temperature and humidity incubator at 37° C. for 20-22 hours.
(§5) Preparation of storage solution: weigh the sample to be tested, dissolve it with 1% DMSO solution, prepare a storage solution with a concentration of 2560 μg/mL, weigh a positive reference substance, dissolve it with aseptic distilled water, and configure a storage solution with a concentration of 2560 μg/mL.
(§6) Under aseptic condition, the experimental strains cultured to logarithmic growth phase were adjusted to 0.5 MCF turbidity standard with MHB medium and […], and the bacterial suspension with concentration of 10^6 CFU/mL was prepared for standby.
(§7) Dilution of storage solution and inoculation of experimental strain: under aseptic condition, the storage solution was diluted to 256 μg/mL solution. Take a sterile 96-well plate, add 200 μL MHB medium to the 12th well, and add 100 μL MHB medium to each well. Add 100 μL of positive control solution to the first well, mix well, and suck 100 μL from it and discard. Add 100 μL of the compound sample solution to the second well, mix well, and then pipette 100 μL to the third well. After mixing, pipette 100 μL to the fourth well, and dilute to the 11th well in this way. Finally, 100 μL was pipetted from the 11th well and discarded. The 12th hole was the growth control without drugs. So far, the concentration of the positive reference substance is 128 μg/mL, the concentrations of the sample solution are 128, 64, 16, 8, 4, 2, 1, 0.5, 0.25 μg/mL respectively. Then, 10 μL of the prepared bacterial suspension is added to each well, so that the final concentration of the bacterial liquid in each well is 5×10^5 CFU/mL.
(§8) Incubation: Cover the 96-well plate inoculated with the experimental strains, and incubate in a constant temperature and humidity box at 37° C. for 20-22 hours.

[2] = test system: multidrug-resistant Pseudomonas aeruginosa MDR-PA 18-202; experiment: MIC by microbroth dilution, MDR-PA 18-202; settings: strain MDR-PA 18-202, 37° C., 20-22 hours
Source text: as §1, §2, §3, §4, §5, §6, §7, §8

[3] = test system: methicillin-resistant Staphylococcus aureus MRSA 18-222; experiment: MIC by microbroth dilution, MRSA 18-222; settings: for Minimum Bacteriostatic Concentration: strain MRSA 18-222, microbroth dilution, 37° C., 20-22 hours
Source text: as §1, §2, §3, §4, §5, §6, §7, §8
(§9) In FIGS. 1-10, the twelve wells represent twelve groups, from left to right, positive, 128 μg/mL, 64 μg/mL, 32 μg/mL, 16 μg/mL, 8 μg/mL, 4 μg/mL, 2 μg/mL, 1 μg/mL, 0.25 μg/mL, 0.0625 μg/mL, Negative.

[4] = test system: carbapenem-resistant Acinetobacter baumannii CR-AB 18-183; experiment: MIC by microbroth dilution, CR-AB 18-183; settings: strain CR-AB 18-183, 37° C., 20-22 hours
Source text: as §1, §2, §3, §4, §5, §6, §7, §8

[5] = test system: multidrug-resistant Pseudomonas aeruginosa MDR-PA 18-174; experiment: MIC by microbroth dilution, MDR-PA 18-174; settings: for Minimum Bacteriostatic Concentration: strain MDR-PA 18-174, microbroth dilution, 37° C., 20-22 hours
Source text: as §1, §2, §3, §4, §5, §6, §7, §8, §9

[6] = test system: drug-resistant bacteria; experiment: Antibacterial activity test, whole panel of drug-resistant strains; settings: summary over the tested drug-resistant strains
Source text: as §1, §2, §3, §4, §5, §6
Dilution of storage solution and inoculation of experimental strain: under aseptic condition, the storage solution was diluted to 256 μg/mL solution. Take a sterile 96-well plate, add 200 μL MHB medium to the 12th well, and add 100 μL MHB medium to each well. Add 100 μL of positive control solution to the first well, mix well, and suck 100 μL from it and discard. […]

[7] = test system: vancomycin-resistant enterococci VRE 18-94; experiment: MIC by microbroth dilution, VRE 18-94; settings: strain VRE 18-94, 37° C., 20-22 hours
Source text: as §1, §2, §3, §4, §5, §6, §7, §8

[8] = test system: methicillin-resistant Staphylococcus aureus MRSA 18-575; experiment: MIC by microbroth dilution, MRSA 18-575; settings: strain MRSA 18-575, 37° C., 20-22 hours
Source text: as §1, §2, §3, §4, §5, §6, §7, §8, §9

[9] = test system: vancomycin-resistant enterococci VRE 18-80; experiment: MIC by microbroth dilution, VRE 18-80; settings: strain VRE 18-80, 37° C., 20-22 hours
Source text: as §1, §2, §3, §4, §5, §6, §7, §8

In the case of `COc1ccc(C=CC(=O)O)cc1` [4-methoxycinnamic acid], the “Minimum Bacteriostatic Concentration” value [1] is reported as over 128 µg/mL, the “Minimum Bacteriostatic Concentration” value [2] is reported as over 128 µg/mL and the “Minimum Bacteriostatic Concentration” value [3] is reported as over 128 µg/mL. For the same compound, the “Minimum Bacteriostatic Concentration” value [4] was over 128 µg/mL, the “Minimum Bacteriostatic Concentration” value [5] was over 128 µg/mL and the “inhibitory effect on drug-resistant bacteria (result in words)” value (“inhibitory effect” for short) [6] was “no inhibitory effect”. The “Minimum Bacteriostatic Concentration” value [7] was over 128 µg/mL, the “Minimum Bacteriostatic Concentration” value [8] was over 128 µg/mL and the “Minimum Bacteriostatic Concentration” value [9] was over 128 µg/mL.

In the case of `COc1ccc(/C=C/C(=O)OCCc2ccc(O)c(O)c2)cc1` [(E)-3,4-dihydroxyphenethyl 3-(4-methoxyphenyl)acrylate], the “Minimum Bacteriostatic Concentration” value [1] is reported as over 128 µg/mL, the “Minimum Bacteriostatic Concentration” value [2] is reported as over 128 µg/mL and the MIC ([3]; Staphylococcus aureus, drug-resistant MRSA, strain not named in the text (value matches 18-222)) is reported as 4 µg/mL (≈ 12.7 µM). For the same compound, the “Minimum Bacteriostatic Concentration” value [3] was 4 µg/mL, the “Minimum Bacteriostatic Concentration” value [4] was over 128 µg/mL and the MIC ([5]; Pseudomonas aeruginosa, MDR-PA, strain not named in the text (value matches 18-174)) was 8 µg/mL (≈ 25.5 µM). The “Minimum Bacteriostatic Concentration” value [5] was 8 µg/mL, the “inhibitory effect” value [6] was “excellent antibacterial activity” and the “Minimum Bacteriostatic Concentration” value [7] was over 128 µg/mL. For the same compound, the “Minimum Bacteriostatic Concentration” value [8] was 32 µg/mL and the “Minimum Bacteriostatic Concentration” value [9] was over 128 µg/mL.

`Cc1nnc(SCC2=C(C(=O)O)N3C(=O)[C@@H](NC(=O)Cn4cnnn4)[C@H]3SC2)s1` [Cefazolin sodium, cefazolin sodium] was tested, and the “Minimum Bacteriostatic Concentration” value [1] was over 128 µg/mL, the “Minimum Bacteriostatic Concentration” value [2] was 128 µg/mL and the “Minimum Bacteriostatic Concentration” value [3] was over 128 µg/mL. For the same compound, the “Minimum Bacteriostatic Concentration” value [4] was over 128 µg/mL, the “Minimum Bacteriostatic Concentration” value [5] was 8 µg/mL and the “Minimum Bacteriostatic Concentration” value [7] was over 128 µg/mL. For the same compound, the “Minimum Bacteriostatic Concentration” value [8] was over 128 µg/mL and the “Minimum Bacteriostatic Concentration” value [9] was 32 µg/mL.

For `CO/N=C(\C(=O)N[C@@H]1C(=O)N2C(C(=O)O)=C(CSc3nc(=O)c(=O)[nH]n3C)CS[C@H]12)c1csc(N)n1` [Ceftriaxone sodium, ceftriaxone sodium], the “Minimum Bacteriostatic Concentration” value [1] was over 128 µg/mL, the “Minimum Bacteriostatic Concentration” value [2] was 16 µg/mL and the “Minimum Bacteriostatic Concentration” value [3] was over 128 µg/mL. For the same compound, the “Minimum Bacteriostatic Concentration” value [4] was over 128 µg/mL, the “Minimum Bacteriostatic Concentration” value [5] was 128 µg/mL and the “Minimum Bacteriostatic Concentration” value [7] was over 128 µg/mL. For the same compound, the “Minimum Bacteriostatic Concentration” value [8] was over 128 µg/mL and the “Minimum Bacteriostatic Concentration” value [9] was 8 µg/mL.

`OCCc1ccc(O)c(O)c1` [Hydroxytyrosol] was tested, and the “Minimum Bacteriostatic Concentration” value [1] was over 128 µg/mL, the “Minimum Bacteriostatic Concentration” value [2] was over 128 µg/mL and the “Minimum Bacteriostatic Concentration” value [3] was over 128 µg/mL. For the same compound, the “Minimum Bacteriostatic Concentration” value [4] was over 128 µg/mL, the “Minimum Bacteriostatic Concentration” value [5] was over 128 µg/mL and the “inhibitory effect” value [6] was “no inhibitory effect”. For the same compound, the “Minimum Bacteriostatic Concentration” value [7] was over 128 µg/mL, the “Minimum Bacteriostatic Concentration” value [8] was over 128 µg/mL and the “Minimum Bacteriostatic Concentration” value [9] was over 128 µg/mL.

gentamicin was tested, and the “Minimum Bacteriostatic Concentration” value [1] was over 128 µg/mL, the “Minimum Bacteriostatic Concentration” value [2] was 0.0625 µg/mL and the “Minimum Bacteriostatic Concentration” value [3] was 128 µg/mL. For the same compound, the “Minimum Bacteriostatic Concentration” value [4] was over 128 µg/mL, the “Minimum Bacteriostatic Concentration” value [5] was 0.0625 µg/mL and the “Minimum Bacteriostatic Concentration” value [7] was over 128 µg/mL. The “Minimum Bacteriostatic Concentration” value [8] was 2 µg/mL and the “Minimum Bacteriostatic Concentration” value [9] was 0.0625 µg/mL.
